Results reported in publication PMC5729109 (Journal of the American Chemical Society, 2017).
“And” between values parts separate entries of the source, which are not always exact repeats. Identical values can stand only once. Marks after values point to notes of the source that are not given here. *1 amine or outer side, *2 acyl side, *3 side chain or, on linkers, in order; H or OH if unused. Where a SMILES comes first, the peptide text is derived from it. Bridges are numbered along the chain shown (N, C = ends). [ ]: non-standard residue; d: D form. Adda = CO[C@@H](Cc1ccccc1)[C@@H](C)/C=C(C)/C=C/[C@H](N[*:1])[C@H](C)C(=O)[*:2]; dAsp(3S-Me) = C[C@H](C(=O)[*:3])[C@@H](N[*:1])C(=O)[*:2]; d(γGlu) = O=C(O)[C@@H](CCC(=O)[*:2])N[*:1]; NMeDha = C=C(NC)C(=O)O

Assays:
PP2A [1] = biological target: T1, PP2A (Homo sapiens, UniProt P67775); conditions: cited from earlier work
[2] = biological target: PP1 Cys127Ser mutant (C127SPP1) (Homo sapiens, UniProt P62136, C127S); format: biochemical
PP1, PP2A, PP4 and PP5 = conditions: cited from earlier work
PP4 = PP4 (Homo sapiens, UniProt P60510); experiment: DiFMUP dephosphorylation assay, PP4; format: biochemical
Lyp [3] = conditions: tyrosine phosphatase; cited from earlier work
VHR [4] = conditions: tyrosine phosphatase; cited from earlier work
HePTP [5] = conditions: tyrosine phosphatase; cited from earlier work
PP1 [6] = biological target: T2, PP1 (Homo sapiens, UniProt P62136); experiment: [32P]-phosphohistone dephosphorylation assay, PP1; format: biochemical
CDC14A [7] = experiment: Tyrosine phosphatase inhibition, CDC14A; format: biochemical; conditions: IC50 CDC14A / IC50 PP1
CD45 [8] = conditions: tyrosine phosphatase; cited from earlier work
PTP1B [9] = conditions: tyrosine phosphatase; cited from earlier work
PP1 [10] = biological target: T2, PP1; experiment: Lineweaver-Burk kinetic analysis, PP1; format: biochemical; conditions: WT PP1; indicative of irreversible enzyme inhibition; Figure S6
PP2B = PP2B (Homo sapiens, UniProt Q08209); experiment: DiFMUP dephosphorylation assay, PP2B; format: biochemical
Lyp [11] = experiment: Tyrosine phosphatase inhibition, Lyp; format: biochemical; conditions: IC50 Lyp / IC50 PP1
PTPα [12] = conditions: tyrosine phosphatase; cited from earlier work
PPP family members = experiment: In vitro dephosphorylation assays across PPP family members; format: biochemical
PP6 = PP6 (Homo sapiens, UniProt O00743); experiment: DiFMUP dephosphorylation assay, PP6; format: biochemical
PP1 (Cys127) = PP1 (Cys127) (Homo sapiens, UniProt P62136); experiment: ESI mass spectrometry of covalent PP1:TTN adduct, time-course; format: binding; conditions: ESI-MS time-course analysis
CDC14A [13] = conditions: tyrosine phosphatase; cited from earlier work
PP5 = PP5 (Homo sapiens, UniProt P53041); experiment: [32P]-phosphohistone dephosphorylation assay, PP5; format: biochemical
CD45 [14] = experiment: Tyrosine phosphatase inhibition, CD45; format: biochemical; conditions: IC50 CD45 / IC50 PP1
VHR [15] = experiment: Tyrosine phosphatase inhibition, VHR; format: biochemical; conditions: IC50 VHR / IC50 PP1
SHP2 [16] = experiment: Tyrosine phosphatase inhibition, SHP2; format: biochemical; conditions: IC50 SHP2 / IC50 PP1
PTP1B [17] = experiment: Tyrosine phosphatase inhibition, PTP1B; format: biochemical; conditions: IC50 PTP1B / IC50 PP1
HePTP [18] = experiment: Tyrosine phosphatase inhibition, HePTP; format: biochemical; conditions: IC50 HePTP / IC50 PP1
SHP1 [19] = experiment: Tyrosine phosphatase inhibition, SHP1; format: biochemical; conditions: IC50 SHP1 / IC50 PP1
PP2A [20] = biological target: T1, PP2A; experiment: [32P]-phosphohistone dephosphorylation assay, PP2A; format: biochemical
PTPα [21] = experiment: Tyrosine phosphatase inhibition, PTPα; format: biochemical; conditions: IC50 PTPα / IC50 PP1
SHP2 [22] = conditions: tyrosine phosphatase; cited from earlier work
SHP1 [23] = conditions: tyrosine phosphatase; cited from earlier work

T1 sequence (P67775 whole entry): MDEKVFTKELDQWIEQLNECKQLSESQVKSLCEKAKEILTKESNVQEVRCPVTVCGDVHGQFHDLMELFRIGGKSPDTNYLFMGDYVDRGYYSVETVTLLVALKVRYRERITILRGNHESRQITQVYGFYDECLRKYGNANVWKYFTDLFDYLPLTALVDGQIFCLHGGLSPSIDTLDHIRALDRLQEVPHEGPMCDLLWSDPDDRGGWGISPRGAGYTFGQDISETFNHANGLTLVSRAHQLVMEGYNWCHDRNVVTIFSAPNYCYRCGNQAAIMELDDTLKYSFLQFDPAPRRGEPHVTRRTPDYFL
PP1 Cys127Ser mutant (C127SPP1), sequence (P62136 whole entry C127S): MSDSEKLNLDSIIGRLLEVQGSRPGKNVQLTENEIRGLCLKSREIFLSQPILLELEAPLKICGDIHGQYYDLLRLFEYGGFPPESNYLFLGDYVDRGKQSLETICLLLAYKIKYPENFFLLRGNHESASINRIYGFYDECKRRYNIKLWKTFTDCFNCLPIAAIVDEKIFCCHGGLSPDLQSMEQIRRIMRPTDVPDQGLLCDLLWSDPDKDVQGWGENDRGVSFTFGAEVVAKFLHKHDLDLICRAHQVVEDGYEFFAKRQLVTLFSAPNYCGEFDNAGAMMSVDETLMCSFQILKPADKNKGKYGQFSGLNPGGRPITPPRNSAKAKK
PP4, sequence (P60510 whole entry): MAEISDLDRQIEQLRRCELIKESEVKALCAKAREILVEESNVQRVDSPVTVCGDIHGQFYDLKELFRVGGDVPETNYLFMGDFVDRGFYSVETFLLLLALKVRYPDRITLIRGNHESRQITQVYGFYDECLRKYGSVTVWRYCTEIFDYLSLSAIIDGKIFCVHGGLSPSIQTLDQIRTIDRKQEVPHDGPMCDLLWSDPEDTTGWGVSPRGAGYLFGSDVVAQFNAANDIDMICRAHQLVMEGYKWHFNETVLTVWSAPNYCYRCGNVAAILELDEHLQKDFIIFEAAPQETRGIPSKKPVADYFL
PP2B, sequence (P63098 2-170, other chains not shown): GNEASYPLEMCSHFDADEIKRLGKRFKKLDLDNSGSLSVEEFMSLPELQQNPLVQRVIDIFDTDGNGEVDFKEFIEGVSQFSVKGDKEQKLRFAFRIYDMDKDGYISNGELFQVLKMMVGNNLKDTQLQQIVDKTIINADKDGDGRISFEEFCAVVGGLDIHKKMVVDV
T2 sequence (P62136 whole entry): as the sequence (P62136 whole entry C127S) above, with S127C counted along it
PP6, sequence (O00743 whole entry): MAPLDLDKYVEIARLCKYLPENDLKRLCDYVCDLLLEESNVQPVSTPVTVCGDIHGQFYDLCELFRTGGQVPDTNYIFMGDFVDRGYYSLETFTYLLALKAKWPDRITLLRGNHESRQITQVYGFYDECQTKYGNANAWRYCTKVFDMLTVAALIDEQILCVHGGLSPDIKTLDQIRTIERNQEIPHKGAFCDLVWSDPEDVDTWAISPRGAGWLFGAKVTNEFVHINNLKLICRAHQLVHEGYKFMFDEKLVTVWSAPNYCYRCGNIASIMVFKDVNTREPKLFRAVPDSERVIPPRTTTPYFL
PP5, sequence (P53041 whole entry): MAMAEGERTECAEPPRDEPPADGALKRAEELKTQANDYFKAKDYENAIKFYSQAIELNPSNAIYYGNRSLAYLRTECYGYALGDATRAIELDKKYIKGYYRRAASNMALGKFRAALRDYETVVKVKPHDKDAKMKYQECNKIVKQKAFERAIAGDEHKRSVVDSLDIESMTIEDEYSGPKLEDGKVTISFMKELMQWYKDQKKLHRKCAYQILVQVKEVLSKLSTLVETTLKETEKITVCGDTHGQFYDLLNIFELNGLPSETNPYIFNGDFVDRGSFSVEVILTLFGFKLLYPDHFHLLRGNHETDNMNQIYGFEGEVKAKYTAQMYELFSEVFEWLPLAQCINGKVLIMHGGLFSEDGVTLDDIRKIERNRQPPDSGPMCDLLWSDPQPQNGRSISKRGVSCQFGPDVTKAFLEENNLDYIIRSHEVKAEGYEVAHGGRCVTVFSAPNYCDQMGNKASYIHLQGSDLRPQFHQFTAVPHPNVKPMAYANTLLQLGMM
PP1 (Cys127), sequence (P62136 7-300): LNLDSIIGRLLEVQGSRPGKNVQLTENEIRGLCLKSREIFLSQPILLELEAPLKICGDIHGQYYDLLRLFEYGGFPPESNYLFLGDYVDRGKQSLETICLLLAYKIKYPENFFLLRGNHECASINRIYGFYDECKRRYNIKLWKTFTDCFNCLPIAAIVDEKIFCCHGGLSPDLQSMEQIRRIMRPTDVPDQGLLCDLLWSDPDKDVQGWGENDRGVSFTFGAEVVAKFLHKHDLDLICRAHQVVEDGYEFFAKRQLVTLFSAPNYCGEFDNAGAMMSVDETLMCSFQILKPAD

Structure (SMILES): C[C@@](O)(/C=C/[C@H]1CC=CC(=O)O1)[C@@H](C[C@@H](O)\C=C/C=C\C=C\CO)OP(=O)(O)O [fostriecin]
- Inhibition of PP2A compared with PP4 (PP2A [1]): nearly the same extent

Structure (SMILES): C=C1C(=O)N[C@H](C)C(=O)N[C@@H](CC(C)C)C(=O)N[C@@H](C(=O)O)[C@H](C)C(=O)N[C@@H](CCCNC(=N)N)C(=O)N[C@@H](/C=C/C(C)=C/[C@H](C)[C@H](Cc2ccccc2)OC)[C@H](C)C(=O)N[C@@H](C(=O)O)CCC(=O)N1C [Microcystin-LR] (R[Adda][d(γGlu)][NMeDha][dA]L[dAsp(3S-Me)]-OH; lactam N-7)
- Change of IC50 for C127SPP1 compared to WT PP1 [2]: no difference

Structure (SMILES): CO[C@H]([C@H](O)CC(=O)[C@@H](C)[C@@H](O)CC[C@@H](C)[C@@H]1O[C@]2(CC[C@@H](C)[C@H](CC[C@H](C)C(C)=O)O2)CC[C@@H]1C)[C@H](OC(=O)C[C@@H](O)C1=C(C)C(=O)OC1=O)C(C)C [TTM, tautomycin]
- Inhibition of PP1, PP2A, PP4 and PP5 compared (PP1, PP2A, PP4 and PP5): to a similar extent

Structure (SMILES): C=C/C(=C/C(=O)C[C@H](C)C[C@@H](C)CC[C@H](O)[C@H](C)C(=O)C[C@@H](O)[C@H](C)[C@@H](C)OC(=O)C[C@@H](O)C1=C(C)C(=O)OC1=O)CC [TTN, Tautomycetin]
- IC50 (PP4): 0.0444 ± 0.0042 µM
- Fold change (relative to PP1) (PP4; IC50 PP4 / IC50 PP1): 1168 fold
- IC50 (Lyp [3]): 20 ± 2 µM
- IC50 (VHR [4]): > 50 µM
- IC50 (HePTP [5]): > 50 µM
- IC50 (PP1 [6]): 0.038 ± 0.009 nM
- Fold change (relative to PP1) (CDC14A [7]): >10^5 fold
- IC50 (CD45 [8]): > 50 µM
- IC50 (PTP1B [9]): 41.2 ± 4.4 µM
- Mode of inhibition (Lineweaver-Burk kinetic analysis) (PP1 [10]): noncompetitive inhibition
- IC50 (PP2B): 17.5 ± 3.2 µM
- Fold change (relative to PP1) (PP2B; IC50 PP2B / IC50 PP1): >10^5 fold
- Fold change (relative to PP1) (Lyp [11]): >10^5 fold
- IC50 (PTPα [12]): > 50 µM
- Selectivity (potency) for PP1 versus any other PPP tested (PPP family members): > 100 fold and 100 fold
- Fold higher IC50 than for PP1, the other PPPs tested (PPP family members; PPPs other than PP2A and PP5): > 10^3 fold
- IC50 (PP6): 0.101 ± 0.007 µM
- Fold change (relative to PP1) (PP6; IC50 PP6 / IC50 PP1): 2657 fold
- Time of covalent adduct formation with PP1 (PP1 (Cys127)): less than 10 min
- IC50 (CDC14A [13]): > 50 µM
- IC50 (PP5): 0.0119 ± 5e-05 µM
- Fold change (relative to PP1) (PP5; IC50 PP5 / IC50 PP1, [32P]-phosphohistone): 313 ^b fold
- Fold change (relative to PP1) (CD45 [14]): >10^5 fold
- Fold change (relative to PP1) (VHR [15]): >10^5 fold
- Fold change (relative to PP1) (SHP2 [16]): >10^4 fold
- Fold change (relative to PP1) (PTP1B [17]): >10^5 fold
- Fold change (relative to PP1) (HePTP [18]): >10^5 fold
- Change of IC50 for C127SPP1 compared to WT PP1 [2]: ~10 fold
- Mode of inhibition (Lineweaver-Burk kinetic analysis) ([2]; C127SPP1, Figure S6): competitive inhibition
- Fold change (relative to PP1) (SHP1 [19]): >10^5 fold
- IC50 (PP2A [20]): 0.0053 ± 0.00026 µM
- Fold change (relative to PP1) (PP2A [20]; IC50 PP2A / IC50 PP1, [32P]-phosphohistone): 139 ^b fold
- Fold change (relative to PP1) (PTPα [21]): >10^5 fold
- IC50 (SHP2 [22]): 2.9 ± 0.2 µM
- IC50 (SHP1 [23]): 14.6 ± 0.1 µM
